inhibition, IC50 and Ratio IC50 data for 2 compounds are collected here from ChEMBL document CHEMBL1137750, “Synthesis and biological evaluation of 4,5-diphenyloxazolone derivatives on route towards selective COX-2 inhibitors” (Eur J Med Chem, 2009).

By inhibition is commonly meant the percentage by which the read-out fell short of the control. In general, IC50 refers to the concentration that gives 50% inhibition.

For test [1], the target named is T1, Prostaglandin G/H synthase 1 (Ovis aries) (UniProt P05979).
T1 sequence (whole entry): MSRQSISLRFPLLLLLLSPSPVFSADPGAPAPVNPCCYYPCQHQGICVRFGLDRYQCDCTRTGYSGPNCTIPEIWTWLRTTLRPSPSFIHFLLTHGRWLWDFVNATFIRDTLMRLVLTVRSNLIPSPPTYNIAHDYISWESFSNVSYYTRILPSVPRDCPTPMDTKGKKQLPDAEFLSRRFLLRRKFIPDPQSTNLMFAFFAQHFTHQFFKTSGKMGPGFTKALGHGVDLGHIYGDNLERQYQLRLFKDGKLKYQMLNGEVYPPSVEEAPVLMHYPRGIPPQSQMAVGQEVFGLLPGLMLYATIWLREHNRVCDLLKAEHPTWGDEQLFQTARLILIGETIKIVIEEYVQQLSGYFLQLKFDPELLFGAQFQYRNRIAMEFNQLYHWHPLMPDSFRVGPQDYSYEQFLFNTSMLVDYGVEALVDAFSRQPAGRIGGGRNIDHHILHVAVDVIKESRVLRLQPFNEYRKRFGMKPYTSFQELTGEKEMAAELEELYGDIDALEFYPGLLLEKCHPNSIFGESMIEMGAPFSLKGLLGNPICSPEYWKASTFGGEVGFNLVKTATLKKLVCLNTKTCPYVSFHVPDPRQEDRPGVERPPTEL
Put plainly: Inhibition of ovine COX1 at 10 uM by enzyme immunoassay relative to control.

Test [2] addresses T2, Prostaglandin G/H synthase 2 (Homo sapiens) (UniProt P35354).
T2 sequence (whole entry): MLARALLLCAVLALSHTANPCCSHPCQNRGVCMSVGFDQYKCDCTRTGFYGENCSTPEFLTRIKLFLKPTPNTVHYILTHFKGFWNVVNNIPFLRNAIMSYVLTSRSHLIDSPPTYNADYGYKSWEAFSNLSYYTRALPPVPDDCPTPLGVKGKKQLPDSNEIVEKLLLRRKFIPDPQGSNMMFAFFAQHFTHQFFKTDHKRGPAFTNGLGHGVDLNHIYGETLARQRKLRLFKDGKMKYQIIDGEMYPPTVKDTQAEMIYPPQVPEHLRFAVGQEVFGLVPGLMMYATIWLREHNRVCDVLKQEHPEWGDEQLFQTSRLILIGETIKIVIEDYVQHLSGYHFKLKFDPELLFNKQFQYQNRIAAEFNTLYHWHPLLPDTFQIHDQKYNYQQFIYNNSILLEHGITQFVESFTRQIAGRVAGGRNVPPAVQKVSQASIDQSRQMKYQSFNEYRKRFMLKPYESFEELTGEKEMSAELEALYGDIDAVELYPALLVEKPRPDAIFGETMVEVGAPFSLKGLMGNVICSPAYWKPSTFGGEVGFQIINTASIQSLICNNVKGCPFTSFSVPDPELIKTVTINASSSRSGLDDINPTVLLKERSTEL
Put plainly: Inhibition of COX2 in LPS-stimulated human whole blood assessed as PGE2 production by enzyme immunoassay. The note with it: concentration not given here. The format is tissue-based.

Test [3] addresses Prostaglandin G/H synthase 1 (Homo sapiens) (UniProt P23219). Put plainly: Inhibition of COX1 in human whole blood assessed as TXB2 production at 10 uM by enzyme immunoassay.
Test [4] addresses T3, Prostaglandin G/H synthase 1 (Ovis aries, UniProt P05979).
T3 sequence (P05979 whole entry): T1 sequence (whole entry)
The experiment in a line: Inhibition of ovine COX1 by enzyme immunoassay.

The target in test [5] is T1, Prostaglandin G/H synthase 1 (Ovis aries). The experiment in a line: Inhibition of ovine COX1 at 100 uM by enzyme immunoassay relative to control.
For test [6], the species on record is Ovis aries. Put plainly: Selectivity index, raio of IC50 for ovine COX1 to IC50 for ovine COX2.

Prostaglandin G/H synthase 1 (Homo sapiens), sequence (P23219 whole entry): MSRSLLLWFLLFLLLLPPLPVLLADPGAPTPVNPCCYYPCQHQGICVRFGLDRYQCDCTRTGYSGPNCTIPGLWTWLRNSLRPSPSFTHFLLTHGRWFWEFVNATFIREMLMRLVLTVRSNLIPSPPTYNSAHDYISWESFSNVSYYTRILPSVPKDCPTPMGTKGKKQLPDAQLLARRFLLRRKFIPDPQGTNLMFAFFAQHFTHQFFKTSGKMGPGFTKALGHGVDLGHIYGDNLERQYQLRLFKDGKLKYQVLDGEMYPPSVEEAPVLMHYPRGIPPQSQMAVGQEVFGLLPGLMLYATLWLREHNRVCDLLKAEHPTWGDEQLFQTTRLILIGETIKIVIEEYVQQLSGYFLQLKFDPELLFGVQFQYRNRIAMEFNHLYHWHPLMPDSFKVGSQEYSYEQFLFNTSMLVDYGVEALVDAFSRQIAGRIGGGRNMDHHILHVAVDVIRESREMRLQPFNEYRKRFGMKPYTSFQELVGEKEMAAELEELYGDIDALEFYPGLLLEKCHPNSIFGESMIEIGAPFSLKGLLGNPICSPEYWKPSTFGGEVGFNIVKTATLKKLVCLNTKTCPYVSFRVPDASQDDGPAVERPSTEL

As for `Cn1c(-c2ccccc2)c(-c2ccc(S(N)(=O)=O)cc2)oc1=O`, the inhibition in test [1] came out at 3.56%; in test [2], 85%; in test [3] it was 7%; in test [5], 19.3%. Further, in test [4], the IC50 is over 100 µM. Besides, the Ratio IC50 in test [6] is over 50.
In turn, `COc1ccc2c(c1)c(CC(=O)O)c(C)n2C(=O)c1ccc(Cl)cc1` came in with an inhibition in test [1] of 71.9%.
